One series concerns influenza virus A. In words: Anti-influenza virus A activity as summarised in the text. Type of series: cell-based. Conditions: conclusions.
The next series concerns influenza B virus. The experiment in a line: microbe, parasite or virus in culture. The format is cell-based. Conditions: MDCK, read-out: Anti-influenza EC50 B.
The next series deals with MDCK cell cultures. Conditions: for Cytotoxicity MCC: dog.
A further series has as its system influenza A (H1N1). The experiment in a line: microbe, parasite or virus in culture. Particulars: H1N1, MDCK, read-out: Anti-influenza EC50 A (H1N1). The format is cell-based.
Another series relates to influenza A (H3N2). In words: microbe, parasite or virus in culture. Type of series: cell-based. Conditions: H3N2, MDCK, read-out: Anti-influenza EC50 A (H3N2).
A short description of another series: in vitro. Particulars: dog.

By EC50 is commonly meant the concentration giving half of the maximal effect. Regarding `Nc1nc(P(=O)(O)O)nc(N)c1Cl` [7a, 4,6-Diamino-5-chloropyrimidin-2-ylphosphonic acid], the “Anti-influenza virus A activity (in words)” value in the series on influenza virus A is recorded as “middle micromolar range”. Besides, the EC50 was determined as 72 ± 68 µM in the series with influenza B virus, 50 ± 14 µM in the series on influenza A (H1N1) and 28 ± 10 µM in the series on influenza A (H3N2). Further, the “Toxicity (in words)” value with MDCK cell cultures (Table 2) was “no toxicity”. For the same compound, the “Cytotoxicity MCC” value with MDCK cell cultures was >100 µM. The CC50 in “in vitro” was > 100 µM.

Consider `CCOC(=O)C1=C[C@@H](OC(CC)CC)[C@H](NC(C)=O)[C@@H](N)C1` [Oseltamivir], for which the 50% effective concentration (EC50) came to 26 ± 27.7 µM with influenza B virus, […] in the series with influenza A (H1N1) and […] in the series on influenza A (H3N2). For the same compound, the “Cytotoxicity MCC” value in the series on MDCK cell cultures is >100 µM. For the same compound, in the series “in vitro”, the CC50 was > 100 µM.

Take `NC12CC3CC(CC(C3)C1)C2` [Amantadine]: the EC50 was > 200 µM with influenza B virus, 36.8 ± 2.6 µM with influenza A (H1N1) and > 200 µM in the series with influenza A (H3N2). In addition, the “Cytotoxicity MCC” value in the series on MDCK cell cultures was >100 µM. Besides, in “in vitro”, the CC50 was > 100 µM.

In the case of `CC(N)C12CC3CC(CC(C3)C1)C2` (stereo not drawn) [Rimantadine], the concentration giving a half-maximal response (EC50) was > 500 µM in the series on influenza B virus, 13.2 ± 0.2 µM with influenza A (H1N1) and > 500 µM in the series with influenza A (H3N2). Further, the “Cytotoxicity MCC” value with MDCK cell cultures is >100 µM. Moreover, the CC50 in the series “in vitro” was > 100 µM.

Turning to `NC(=O)c1ncn([C@@H]2O[C@H](CO)[C@@H](O)[C@H]2O)n1` [Ribavirin], the 50% effective concentration (EC50) in the series with influenza B virus turned out to be 5.6 ± 2.8 µM; with influenza A (H1N1), 9.2 ± 0.8 µM; in the series with influenza A (H3N2) it was 8.7 ± 3.8 µM. Besides, the “Cytotoxicity MCC” value with MDCK cell cultures was >100 µM. Further, the CC50 in the series “in vitro” was > 100 µM.
